{
  "source": "patent US20150141485A1",
  "about": "“PROGNOSIS AND TREATMENT OF LUNG CANCER USING miRNA-135b” (NATIONAL CHENG KUNG UNIVERSITY, priority 2013, published 2015)",
  "key": {"CL1-5-F4 cells [1]": {"test_system": "CL1-5-F4 cells", "assay": "Real-time RT-PCR of miR-135b", "assay_type": "cell-based, human", "conditions": "6 hours", "protocol": "CL1-5-F4 cells were treated with different concentrations of TNF-α with or without BAY-117082 (5 or 10 μM) for 6 hours. Total RNA was harvested, and miR-135b expression was analyzed and analysis by real-time RT-PCR. Mean±s.d. is shown, *P<0.05; **P<0.005 by Student's t-test.\n(§1) Cells were seeded at concentration of 1×10^5 for treatment with 5-aza-2′-CdR (R&D Systems INC., MN, USA) for 96 hours. For TNF-α (PeproTech, Rocky Hill. N.J.) stimulation, 1×10^6 cells were seeded for 24 hours and treated with different amounts of TNF-α for 6 hours.\n(§2) Total RNA was isolated using TRIZOL reagent (Invitrogen, Carisbad, Calif.) according to the standard protocol. The mature miR-135b and endogenous control U6B were analyzed using TaqMan Micro RNA Assay (Applied Biosystems, Foster City, Calif.). Briefly, total RNA was reverse-transcribed via SuperScipt-III Reverse Transcriptase (Invitrogen, Carlsbad, Calif.). The cDNA was amplied with TaqMan 2× Universal Master Mix (Applied Biosystems), and miRNA-specific real-time PCR was performed using an ABI 7500 real-time PCR system."}, "H1299 cells": {"test_system": "H1299 cells", "assay": "Real-time RT-PCR of miR-135b", "assay_type": "cell-based", "conditions": "single treatment", "protocol": "Cells were treated with or without 5-aza-2′-CdR for 4 days and re-seeded for TNF-α stimulation for 6 hours. Total RNA was harvested, and miR-135b expression was analyzed. Mean±s.d. is shown, *P<0.05; **P<0.005 by Student's t-test.\nas §1, §2"}, "[2]": {"test_system": "NF-κB binding site within the miR-135b promoter", "assay": "Chromatin immunoprecipitation (ChIP) with anti-p65", "assay_type": "cell-based", "conditions": "6 hours stimulation", "protocol": "The cells were treated with indicated amounts of 5-aza-2′-CdR (upper panel) for 4 days or TNF-α (lower panel) for 6 hours before being subjected to chromatin immunoprecipitation (ChIP) with anti-p65 antibody and specific primers.\nCL1-0 and H1299 cells were fixed with 1% formaldehyde and blocked by 125 mM glycine. The cells were resuspended in cell lysis buffer (5 mM HEPES, 85 mM KCl, 0.5% Triton X-100, 1 mM DTT, 1 mM PMSF, pH 8.0), followed by nucleic lysis buffer (50 mMTris-HCl, 10 mM EDTA, 1% SDS, 1 mM DTT, and protease inhibitor (Roche Applied Science, Mannheim, Germany)). The cell lysate was sonicated and clarified by centrifugation. The supernatant was diluted with protein G beads at 4° C. to pre-clear the solution Immunoprecipitation with anti-RelA (Abcam, Cambridge, UK) was performed at 4° C. overnight. DNA-protein complexes were than incubated with protein G agarose beads at 4° C. with constant rotation for 2 hours. Following immunoprecipitation, the beads were washed with a low-salt wash buffer, a high-salt wash buffer, a LiCl wash buffer, and, finally, a TE buffer. The immunoprecipitated complexes were eluted in a buffer containing 10 mM Tris pH 8.0, 300 mM NaCl. 5 mM EDTA, and 0.5% SDS at room temperature. The samples were then treated with proteinase K for 1 hour, followed by RNAse A. Next, the DNA was purified by phenol/chloroform extraction. […]"}, "LEMD1 mRNA": {"test_system": "LEMD1 mRNA", "assay": "LEMD1 mRNA expression after DNA demethylation", "assay_type": "cell-based", "conditions": "lung cancer cell lines", "protocol": "as §1"}, "miR-135b expression": {"test_system": "miR-135b expression", "assay": "Real-time RT-PCR of miR-135b after DNA demethylation", "assay_type": "cell-based", "conditions": "cancer cells treated 4 days", "protocol": "Cells were treated with different doses of 5-aza-2′-CdR (5′-aza) for 4 days, and total RNA was harvested for real time RT-PCR. Data are expressed as the mean±s.d.\nas §1, §2"}, "CL1-5-F4 cells [3]": {"test_system": "CL1-5-F4 cells", "assay": "Transwell invasion assay", "assay_type": "cell-based, human", "conditions": "CL1-5-F4 cells stably expressing sponge vs control sponge", "protocol": "CL1-5-F4 and Hop-62 cells were transfected with scramble (NC) of miR-135b-specific antagomir (Antago-135b) for 48 hours and the subjected to migration assays (FIG. 2d) and invasion assays (FIG. 2e) as described above. *P<0.05;**P<0.005 by Student's t-test.\nCL1-5-F4 cells transfected with plasmids expressing either control or miR-135b sponges were analyzed using in vitro invasion assay. The average number of invading cells obtained in the transwell invasion assay is presented (n=3).\nTranswell chambers ([…], BD Falcon, Franklin Lakes, N.J.) were coated with the appropriate amount of Matrigel (BD Biosciences, San Jose, Calif.). Next, 2.5×10^4 cells were suspended in NuSerum-containing media (Gibco BRL, Grand Island N.Y., USA), seeded in the chamber and cultured, Cells that invaded the chamber from top to bottom were fixed with methanol and stained with a solution of propidium iodine (Sigma-Aldrich, St. Louis, Mo.). The propidiumiodine-positive signal was quantified using Analytical Imaging Station software package. Each sample was assayed in triplicate."}, "CL1-5-F4 cells [4]": {"test_system": "CL1-5-F4 cells", "assay": "Lung metastasis after intravenous injection of sponge-expressing cells", "assay_type": "in vivo", "conditions": "SCID mice, i.v. sponge-producing CL1-5-F4 cells, 6 weeks, P=0.0126", "text": "CL-5-F4 cells stably expressing control sponge or miR-135b sponge were intravenously injected into SCID mice (n=8). Representative pictures of murine whole lung (left) and H&E staining of lung sections (right) are presented.\nLung tumor nests in each group were examined and counted using a microscope (n=8); Mean±s.e.m. is shown,*P<0.05 by Student's t-test.\nAnimals were housed in a specific-pathgen-free environment in the animal facility of the Institute of Biomedical Sciences, Academia Sinica. All experimental procedures were in compliance with the Academia Sinica IACUC and Council of Agriculture Guidebook for the Care and Use of Laboratory Animals. For intravenous injections of the tumor cells, 1×10^6 cells were suspended in 0.1 mL of phosphate-buffered saline (PBS) and injected into lateral tail vein of SCID mice (10 mice per group). […] For the subcutaneous tumor assay, 1×10^6 CL1-0 cells or 2×10^5 H441 cells were subcutaneously injected in 0.1 mL of PBS into male nude mice (n=8 per group) and allowed to grow for 35 days to reach a volume of 50-200 mm^3 Control antagomir (Scramble) or anti-miR-135b antagomir (antago-135) was intravenously injected at a concentration of 10 μM in 0.1 mL of PBS 4 days after the cells were implanted. An example of a miR-135b antagomir is 5′mU(*)mC(*)mAmCmAmUmAmG-mGmAmAmUmGmAmAmAmAmGmCmC(*)mA(*)mU(*)mA(*)(3′-Ch1)3′ (SEQ ID NO:8). […]"}},
  "data": [
    {"molecule": "TNF-α", "values": [
      {"measurement": "miR-135b expression", "setting": "CL1-5-F4 cells [1]", "result": "induced miR-135b expression was also observed"},
      {"measurement": "miR-135b expression", "setting": "H1299 cells", "result": "induced miR-135b expression was also observed"},
      {"measurement": "association of NF-κB with the miR-135b promoter", "setting": "[2]", "result": "confirmed"}
    ]},
    {"molecule": "Cc1ccc(S(=O)(=O)/C=C/C#N)cc1", "note": "[BAY-117082]", "values": [
      {"measurement": "TNF-α-stimulated miR-135b expression", "setting": "CL1-5-F4 cells [1]; 5 or 10 μM", "result": "negated"}
    ]},
    {"molecule": "Nc1ncn([C@H]2C[C@H](O)[C@@H](CO)O2)c(=O)n1", "note": "[5-aza-2′CdR]", "values": [
      {"measurement": "LEMD1 mRNA expression", "setting": "LEMD1 mRNA", "result": "restored LEND1 mRNA expression in a dose-dependent manner"},
      {"measurement": "miR-135b expression levels", "setting": "miR-135b expression", "result": "restored"}
    ]},
    {"molecule": "miR-135b sponge: miR-135-specific sponge carrying seven repeats of the miR-135b binding site (SEQ ID NO:12) (nucleic acid) DNA: GTCGACTCACATAGGAACTTAAGCCATAATGCTCACATAGGAACTTAAGCCATAATGCTCACATAGGAACTTAAGCCATAATGCTCACATAGGAACTTAAGCCATAATGCTCACATAGGAACTTAAGCCATAATGCTCACATAGGAACTTAAGCCATAATGCTCACATAGGAACTTAAGCCATAATGTCGAC", "values": [
      {"measurement": "invasiveness in transwell invasion assay", "setting": "CL1-5-F4 cells [3]", "result": "diminished the invasive"},
      {"measurement": "number of tumor nodules developed in the mouse lungs", "setting": "CL1-5-F4 cells [4]", "result": "significantly reduced"}
    ]}
  ]
}
